Results on one molecule are retold here after patent US20210290576A1, “STRUCTURALLY MODIFIED FATTY ACIDS FOR IMPROVING GLYCEMIC CONTROL AND TREATING INFLAMMATORY BOWEL DISEASE” (NORTHSEA THERAPEUTICS B.V., priority 2018, published 2021).

Molecules are shown by their SMILES.

Series [1] relates to plasma insulin. The series is described as follows: Plasma insulin at 24 h after OGTT in lean male SPD rats. The series is classed as in vivo, Sprague-Dawley (SPD) rats. To be noted: non-significant. The method, then: Evaluation of the Acute Effects of Compound a and Compound B Upon Active GLP-1 wconcentrations during an oral glucose tolerance test (OGTT) and at 24 h in lean male SPD Rats
To establish the acute effects of oral administration of Compound A and Compound B upon active GLP-1 and insulin concentrations, lean (about 300 g) male Sprague-Dawley (SPD) rats were divided into groups (n=6-8) and fed 74 and 84 mg/kg body weight of Compound A or Compound B respectively, either with or without concurrent administration of a dipeptidyl peptidase 4 (DPP-4) inhibitor 60 minutes prior to an oral glucose tolerance test (OGTT) as outlined below. Parallel groups receiving either corn oil alone (corn oil+vehicle, n=10) or corn oil and a DPP-4 inhibitor (“DPP-4 i”) (corn oil+(DPP-4 i), n=10) were included as controls. The DPP-4 inhibitor was linagliptin.
A second oral dose of 74 and 84 mg/kg bodyweight of Compound A or Compound B respectively was administered at 240 minutes and ad lib feeding was initiated. A second dose of DPP-4 inhibitor was administered at 480 mins prior to lights out. Blood samples were collected at 24 h for measurement of active GLP-1 and insulin. All values are mean, figures depict mean values (SEM).

Series [2] is described as follows: Intestinal tissue distribution of radioactivity by quantitative whole-body autoradiography (QWBA). The series is classed as in vivo, male albino rats. To be noted: single oral 50 mg/kg [14C]-Compound B. The method, then:
Biological Example 7. Concentrations of Radioactivity in Intestinal Segments of Male Albino Rats after a Single Oral Administration of [14C]-Compound B at a Nominal Dose Level of 50 mg/kg Body Weight
This study was conducted to determine the intestinal tissue distribution of radioactivity in male albino rats following a single oral administration of [14C]-Compound B using quantitative whole-body autoradiography (QWBA). The tissue distribution in rats following a single oral dose of [14C]-Compound B at 50 mg/kg (Ca 5 MBq/kg) was studied by QWBA analysis up to 168 hours after dosing.

A short description of series [3]: Excretion balance: recovery of radioactivity in excreta. The conditions noted are these: single oral 50 mg/kg [14C]-Compound B. Type of series: in vivo, male albino rats. The procedure:
Biological Example 8. Recovery of Radioactivity in the Excreta of Male Albino Rats after a Single Oral Administration of [14C]-Compound B at a Nominal Dose Level of 50 mg/kg Body Weight
To assess Compound B clearance via urine versus feces, the excretion pattern of a single oral dose of [14C]-Compound B was determined in male albino rats. […] The total excretion of radioactivity following oral administration was >95% within the first 48 hours. Excretion via the urine accounted for 12% of the administered dose. […]

Series [4] has as its system DSS-induced colitis mice. The series is described as follows: DSS-induced colitis mouse model (body weight, colon length, survival, histology). Type of series: in vivo, C56BL/6J mouse. To be noted: for colon length compared to control: 7 days DSS. From the text:
Evaluation of Effects of Compound B on Intestinal Inflammation in DSS-Induced Colitis Mice
The dextran sodium sulphate-induced (DSS)-induced colitis model is well known in the art as a reproducible chemical induction of intestinal inflammation animal model. See, e.g., Eichele et al., World J Gastroenterol, 2017, 23(33):6016-6029; Randhawa et al., Korean J. Physiol. Pharmacol. (2014) 18:279-288; Jurjus et al., J. Pharmacol. Toxicol., Methods, 2004, 50:81-92; Gaudio et al., Dig. Dis. Sci., 1999, 44:1458-1475. The DSS-induced colitis model morphologically and symptomatically resembles epithelial damage seen in human IBD, and thus has become the most extensively employed experimental model of intestinal inflammation. Okayasu et al., Gastroenterology, 1990, 98:694-702; Kawada et al., World J. Gastroenterol. 2007, 13:5581-5593. The DSS-induced colitis model is most similar to ulcerative colitis in humans, but also has many similarities to Crohn's disease.
DSS is a water soluble, negatively charged sulfated polysaccharide with a highly variable molecular weight ranging from 5 to 1400 kDa. Murine colitis results from administration of about 1% to 3% DSS to the drinking water of a mouse strain susceptible to DSS-induced colitis. Without being bound by theory, the sulfated polysaccharide may not directly induce intestinal inflammation, but may instead act as a direct chemical toxin to colonic epithelium resulting in epithelial cell injury. It is thought that DSS disrupts the intestinal epithelial monolayer lining, leading to the entry of luminal bacteria and associated antigens into the mucosa and allowing the dissemination of proinflammatory intestinal contents into underlying tissue. […] Perse et al., J. Biomed. Biotechnol., 2012:718617.
The C56BL/6J mouse is a strain susceptible to DSS-induced colitis. To evaluate the efficacy and dosage of Compound B in treatment of DSS-induced colitis, inflammation was induced in 30 9-week old C56BL/6J mice by adding 1.5% DSS to the drinking water for 7 days. The mice were fed a standard chow diet that consisted of 30 weight percent wheat. The mice were divided into three groups of 10, and for each day of DSS administration each group was administered via oral gavage either (1) 100 μL corn oil per day (Control), (2) 126 mg/kg Compound B (dissolved in 100 μL corn oil) per day (“Compound B—Low” or “Compound B—L”), or (3) 252 mg/kg Compound B (dissolved in 100 μL corn oil) per day (“Compound B—High” or “Compound B—H”). Following the 7-day period of DSS induction, mice were sacrificed and their intestinal tissue was used for histopathological and gene expression analysis.
To assess the efficacy of Compound B in the treatment of DSS-induced colitis in mice, the body weight of mice was monitored. Weight loss is an indicator of colitis severity.
To assess the efficacy of Compound B in the treatment of DSS-induced colitis in mice, colon length of test mice was measured. Colon length correlates inversely with inflammation.
50% (n=5) of untreated mice in the control group were alive 7 days after colitis was induced, compared to 90% (n=9) of mice treated with the low dose of Compound B, and 100% (n=10) of mice treated with the high dose of compound B. Deaths in the control group were due to sepsis and severe colon inflammation. Thus, Compound B has a statistically significant effect on survival rate in colitis mice.
Histopathological analysis was performed on sections of formalin-fixed paraffin embedded tissue after hematoxylin and eosin (H&E) staining. Colonic samples were analyzed by histopathology for assignment of scores for colitis activity as described in Neurath et al., J. Exp. Med., 2002, 195:1129-1143. Briefly, the degrees of inflammation and epithelial and mucosal injury on microscopic cross-sections of the colon were graded semi-quantitatively from 0 to 4. […]

The subject of series [5] is atherogenic lipids. To be noted: APOE*3.CETP mice; cited from earlier work.

As for `CC/C=C\C/C=C\C/C=C\C/C=C\C/C=C\CCCCSC(CC)(CC)C(=O)O` [Compound B, 2-ethyl-2-((5Z,8Z,11 Z,14Z,17Z)-icosa-5,8,11,14,17-pentaenylthio)butanoic acid], in series [1] (compound alone), the “increase of plasma insulin concentrations at 24 h versus corn oil+vehicle and corn oil+DPP4 inhibitor” value is listed as 25%. In addition, the “increase of plasma insulin concentrations at 24 h versus corn oil+vehicle and corn oil+DPP4 inhibitor” value in series [1] (in combination with DPP4 inhibitor (linagliptin)) is recorded as 40%. Also, in series [2], the “accumulation in the caecum (time span)” value is on record as “from 4 hours onwards to 1 day”, the “accumulation in the large intestine (time)” value worked out at 8 h and the “time of peak concentrations in the small intestinal mucosa” value stood at 4 h. Besides, in series [3] (0-168 h, n = 3), the “% Recovery of Administered Dose, Mean total radioactivity” value worked out at 101%. For the same molecule, the “total excretion of radioactivity within the first 48 hours” value in series [3] is greater than 95%. The “difference in weight loss, control vs. treated” value in series [4] (126 mg/kg per day (Compound B—Low)) is “statistically significant after 7 days”. The “colon length compared to control” value in series [4] (126 mg/kg per day (low dose)) is listed as “significant increase in colon length”. Further, in series [4] (252 mg/kg per day (Compound B—High)), the “difference in weight loss, control vs. treated” value is reported as “statistically significant after 6 days”. Besides, in series [4] (252 mg/kg per day (high dose)), the “histological cross-sections of colon: morphology” value is given as “almost complete rescue”; the “histological scores of colonic samples versus untreated mice” value is reported as “significantly lower”; the “inflammation and epithelial and mucosal injury versus untreated mice” value is “lower”; the “colon length compared to control” value is reported as “significant increase in colon length”. In addition, the “histological cross-sections of colon: inflammatory infiltrates, edema, villus architecture” value in series [4] (126 and 252 mg/kg per day) was “dose-dependent attenuation of inflammatory infiltrates and edema”. The “weight loss compared to the control group” value in series [4] (126 and 252 mg/kg per day oral gavage, 1.5% DSS for 7 days) is on record as “dose-dependent reduction in weight loss”. Moreover, in series [5], the atherogenic lipids result is “significantly reduce atherogenic lipids”.
